Key:
cells [1] = conditions: Homo sapiens, THP-1, 48 h
Description: Growth inhibition of human THP1 cells expressing wild type FLT-3 after 48 hrs by XTT assay

[2] = biological target: Receptor-type tyrosine-protein kinase FLT3 (Homo sapiens, UniProt P36888, D835Y)
Description: Inhibition of human FLT3 D835Y mutant preincubated for 15 mins followed by poly(Glu:Tyr) substrate addition for 30 mins in presence of [gamma-32P]ATP by TR-FRET assay

[3] = Metabolic stability in human liver microsomes assessed as compound remaining at 1 uM after 30 mins in presence of NADPH by HPLC-MS analysis; type: ADME; conditions: read-out: Stability
[4] = biological target: T1, Receptor-type tyrosine-protein kinase FLT3 (Homo sapiens, UniProt P36888); assay: biochemical; type: cell-based, Sf21
T1 sequence (P36888 whole entry): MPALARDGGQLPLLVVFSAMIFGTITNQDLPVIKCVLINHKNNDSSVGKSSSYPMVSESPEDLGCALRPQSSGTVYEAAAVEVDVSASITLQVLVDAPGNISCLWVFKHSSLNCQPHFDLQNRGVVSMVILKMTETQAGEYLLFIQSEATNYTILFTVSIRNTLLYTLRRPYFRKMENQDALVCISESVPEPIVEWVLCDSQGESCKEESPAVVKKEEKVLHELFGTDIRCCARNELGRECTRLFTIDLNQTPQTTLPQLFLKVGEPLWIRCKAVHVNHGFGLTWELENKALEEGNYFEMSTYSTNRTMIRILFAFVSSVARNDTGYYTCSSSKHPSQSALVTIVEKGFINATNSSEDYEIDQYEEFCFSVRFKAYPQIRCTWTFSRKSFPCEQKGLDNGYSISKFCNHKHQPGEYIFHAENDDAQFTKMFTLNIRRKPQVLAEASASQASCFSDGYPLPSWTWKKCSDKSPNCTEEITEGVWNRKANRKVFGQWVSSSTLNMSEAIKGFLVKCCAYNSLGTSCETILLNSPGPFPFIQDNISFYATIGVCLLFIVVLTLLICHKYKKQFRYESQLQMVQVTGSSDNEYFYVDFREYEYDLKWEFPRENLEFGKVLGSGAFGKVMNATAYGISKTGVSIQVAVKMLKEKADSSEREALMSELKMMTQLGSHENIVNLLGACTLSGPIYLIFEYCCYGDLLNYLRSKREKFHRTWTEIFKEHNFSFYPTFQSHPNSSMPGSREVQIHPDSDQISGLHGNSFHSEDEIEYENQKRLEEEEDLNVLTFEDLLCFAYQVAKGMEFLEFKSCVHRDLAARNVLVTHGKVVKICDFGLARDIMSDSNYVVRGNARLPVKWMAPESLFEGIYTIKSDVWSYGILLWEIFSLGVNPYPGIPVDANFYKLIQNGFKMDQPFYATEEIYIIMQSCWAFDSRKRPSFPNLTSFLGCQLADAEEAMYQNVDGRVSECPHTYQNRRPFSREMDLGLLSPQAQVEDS
Description: Inhibition of recombinant human FLT3 expressed in insect Sf21 cells preincubated for 15 mins followed by poly(Glu:Tyr) substrate addition for 30 mins in presence of [gamma-32P]ATP by TR-FRET assay

cells [5] = conditions: Homo sapiens, MV4-11, 48 h
Description: Growth inhibition of human MV4-11 cells expressing FLT3-ITD after 48 hrs by XTT assay

[6] = Metabolic stability in rat liver microsomes assessed as compound remaining at 1 uM after 30 mins in presence of NADPH by HPLC-MS analysis; type: ADME; conditions: for remaining at 0.5 h, 1 µM: liver microsomes, read-out: Stability
cells [7] = conditions: Homo sapiens, K562, 48 h
Description: Growth inhibition of human K562 cells after 48 hrs by XTT assay

cells [8] = conditions: Homo sapiens, HL-60, 48 h
Description: Growth inhibition of human HL60 cells expressing wild type FLT-3 after 48 hrs by XTT assay

Angiopoietin-1 receptor = Angiopoietin-1 receptor (Homo sapiens, UniProt Q02763); assay: Inhibition of human TIE2 assessed as remaining activity at 10 uM preincubated for 15 mins followed by substrate addition measured after 30 mins in presence of [gamma-32P]ATP by […] assay
[9] = biological target: Tyrosine-protein kinase ABL1 (Homo sapiens, UniProt P00519); assay: Inhibition of recombinant human ABL1 expressed in insect cells assessed as remaining activity at 10 uM preincubated for 15 mins followed by poly(Glu:Tyr) substrate addition for 30 mins in presence of [gamma-32P]ATP by […] assay
Tyrosine-protein kinase ABL1, sequence (P00519 whole entry): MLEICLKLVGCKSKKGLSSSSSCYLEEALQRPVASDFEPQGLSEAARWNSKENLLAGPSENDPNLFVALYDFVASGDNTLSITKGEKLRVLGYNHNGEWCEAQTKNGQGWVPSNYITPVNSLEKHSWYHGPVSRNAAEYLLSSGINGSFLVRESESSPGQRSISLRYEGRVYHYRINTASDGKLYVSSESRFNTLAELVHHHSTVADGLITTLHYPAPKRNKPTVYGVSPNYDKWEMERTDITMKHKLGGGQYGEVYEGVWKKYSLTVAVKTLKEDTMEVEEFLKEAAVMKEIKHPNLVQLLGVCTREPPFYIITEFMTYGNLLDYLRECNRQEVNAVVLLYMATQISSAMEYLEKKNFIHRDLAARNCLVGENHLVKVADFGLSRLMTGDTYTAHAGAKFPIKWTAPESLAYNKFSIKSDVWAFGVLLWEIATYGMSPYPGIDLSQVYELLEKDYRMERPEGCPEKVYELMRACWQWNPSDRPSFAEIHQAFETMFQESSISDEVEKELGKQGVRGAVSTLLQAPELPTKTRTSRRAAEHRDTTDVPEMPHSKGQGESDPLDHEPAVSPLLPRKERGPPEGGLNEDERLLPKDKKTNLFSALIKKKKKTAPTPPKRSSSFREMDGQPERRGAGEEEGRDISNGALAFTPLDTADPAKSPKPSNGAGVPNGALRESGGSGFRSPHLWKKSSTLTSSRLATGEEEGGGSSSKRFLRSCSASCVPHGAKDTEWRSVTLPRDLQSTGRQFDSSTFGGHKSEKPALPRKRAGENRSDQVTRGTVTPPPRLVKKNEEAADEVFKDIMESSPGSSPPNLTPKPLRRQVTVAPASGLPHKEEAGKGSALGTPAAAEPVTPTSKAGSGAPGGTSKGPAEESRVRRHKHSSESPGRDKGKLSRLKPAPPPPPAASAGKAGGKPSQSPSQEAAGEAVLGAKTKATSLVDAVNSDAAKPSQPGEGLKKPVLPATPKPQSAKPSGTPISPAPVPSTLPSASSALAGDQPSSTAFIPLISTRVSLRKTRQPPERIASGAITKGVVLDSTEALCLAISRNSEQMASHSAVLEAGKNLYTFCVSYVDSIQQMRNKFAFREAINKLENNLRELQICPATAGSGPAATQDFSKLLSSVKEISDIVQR

Angiopoietin-1 receptor, sequence (Q02763 whole entry): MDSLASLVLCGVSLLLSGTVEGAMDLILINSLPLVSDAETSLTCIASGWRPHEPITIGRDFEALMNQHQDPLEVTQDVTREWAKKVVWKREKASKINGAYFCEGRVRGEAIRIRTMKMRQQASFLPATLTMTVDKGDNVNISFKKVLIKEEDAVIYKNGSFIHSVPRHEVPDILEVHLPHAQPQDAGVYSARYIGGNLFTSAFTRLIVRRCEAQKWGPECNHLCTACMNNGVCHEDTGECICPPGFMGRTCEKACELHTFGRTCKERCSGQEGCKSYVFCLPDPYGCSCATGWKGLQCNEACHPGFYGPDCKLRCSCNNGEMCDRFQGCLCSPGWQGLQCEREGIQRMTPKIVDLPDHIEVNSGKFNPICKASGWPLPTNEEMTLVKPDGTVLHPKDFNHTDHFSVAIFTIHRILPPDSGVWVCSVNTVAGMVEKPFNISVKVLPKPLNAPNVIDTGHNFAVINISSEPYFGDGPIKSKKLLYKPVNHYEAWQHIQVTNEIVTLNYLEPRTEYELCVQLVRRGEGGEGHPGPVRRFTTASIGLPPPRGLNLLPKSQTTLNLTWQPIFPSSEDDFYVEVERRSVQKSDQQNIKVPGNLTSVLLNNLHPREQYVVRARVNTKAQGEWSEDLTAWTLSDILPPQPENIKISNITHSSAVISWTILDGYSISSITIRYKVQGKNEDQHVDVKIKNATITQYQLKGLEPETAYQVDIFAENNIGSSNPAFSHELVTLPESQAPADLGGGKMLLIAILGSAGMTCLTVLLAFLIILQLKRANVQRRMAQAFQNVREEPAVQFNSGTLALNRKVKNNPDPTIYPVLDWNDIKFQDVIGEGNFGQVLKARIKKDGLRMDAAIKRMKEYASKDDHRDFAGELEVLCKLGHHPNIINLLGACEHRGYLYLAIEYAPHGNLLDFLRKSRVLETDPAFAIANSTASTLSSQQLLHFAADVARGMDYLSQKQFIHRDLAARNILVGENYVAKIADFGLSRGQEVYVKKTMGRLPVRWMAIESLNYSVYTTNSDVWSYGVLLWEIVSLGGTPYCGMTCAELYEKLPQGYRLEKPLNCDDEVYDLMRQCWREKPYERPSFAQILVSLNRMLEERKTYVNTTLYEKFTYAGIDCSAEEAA

Structure (SMILES)	GI50 (cells [1]) [µM]	IC50 [2] [µM]	remaining at 0.5 h, 1 µM [3] [%]	IC50 [4] [µM]	GI50 (cells [5]) [µM]	remaining at 0.5 h, 1 µM [6] [%]	GI50 (cells [7]) [µM]	GI50 (cells [8]) [µM]	Activity (Angiopoietin-1 receptor) [%]	Activity [9] [%]	Stability ([6]; microsomes, 0.5 h, 1 µM)
CC1=CC(=O)N(Nc2nc(-c3cccs3)nc3sc(-c4ccc(OCCNCC(C)C)cc4)c(C)c23)C1=O	0.449	0.0359	66.2	0.0025	0.278	39.7	0.489	0.598	–	–	–
CC1=CC(=O)N(Nc2nc(-c3cccs3)nc3sc(-c4ccc(O)cc4)cc23)C1=O	0.765	0.0787	74.1	0.0755	0.927	28.2	0.506	0.336	–	–	–
CC1=CC(=O)N(Nc2nc(-c3cccs3)nc3sc(-c4ccc(F)cc4)cc23)C1=O	–	0.0544	61	0.124	–	26.9	–	–	–	–	–
COc1ccc(-c2cc3c(NN4C(=O)C=C(C)C4=O)nc(-c4cccs4)nc3s2)cc1	1.27	0.0471	–	0.0686	1.7	–	1.09	0.682	–	–	–
CC1=CC(=O)N(Nc2nc(-c3cccs3)nc3sc(-c4ccc(OCc5ccc(F)cc5)cc4)c(C)c23)C1=O	–	–	66.9	–	–	35.6	–	–	–	–	–
CC1=CC(=O)N(Nc2nc(-c3cccs3)nc3sc(C)cc23)C1=O	1.24	0.0147	58.8	0.0168	1.05	32.6	1.01	0.422	–	–	–
CC1=CC(=O)N(Nc2nc(-c3cccs3)nc3sc(C#N)c(C)c23)C1=O	–	0.075	52.7	0.118	–	26.1	–	–	–	–	–
CC1=CC(=O)N(Nc2nc(-c3cccs3)nc3sc(C)c(C)c23)C1=O	0.222	0.0137	32.4	0.0114	0.191	22.7	0.105	0.127	32	29	–
CC1=CC(=O)N(Nc2nc(-c3cccs3)nc3sc(-c4ccc(OCCN5CCCC5)cc4)c(C)c23)C1=O	0.636	0.0165	72.7	0.00643	0.585	41.5	1.04	1.26	–	–	–
CC1=CC(=O)N(Nc2nc(-c3cccs3)nc3sc(-c4ccc(OCCNCc5ccccc5)cc4)c(C)c23)C1=O	–	0.00948	86.2	0.0719	–	30.4	–	–	–	–	–
CC1=CC(=O)N(Nc2nc(-c3cccs3)nc3sc(-c4ccc(O)cc4)c(C)c23)C1=O	–	–	71.8	–	–	28.8	–	–	–	–	–
CC1=CC(=O)N(Nc2nc(-c3cccs3)nc3sc(-c4ccc(OC5CCNC5)cc4)c(C)c23)C1=O (stereo not given)	0.227	0.0293	50.8	0.00377	0.366	34.2	0.315	0.214	25	26	–
CC1=CC(=O)N(Nc2nc(-c3cccs3)nc3sc(CO)c(C)c23)C1=O	–	–	24.6	–	–	20.4	–	–	–	–	–
CC1=CC(=O)N(Nc2nc(-c3cccs3)nc3sc(-c4ccc(OCC5CCCO5)cc4)c(C)c23)C1=O (stereo not given)	–	–	41.7	–	–	41	–	–	–	–	–
CC1=CC(=O)N(Nc2nc(-c3cccs3)nc3sc(-c4ccc(OC5CCNCC5)cc4)c(C)c23)C1=O	0.46	0.0272	52.4	0.0314	0.58	47.8	0.425	0.377	–	–	–
CC1=CC(=O)N(Nc2nc(-c3cccs3)nc3sc(-c4ccc(F)cc4)c(C)c23)C1=O	–	–	39.5	–	–	54.5	–	–	–	–	–
CC1=CC(=O)N(Nc2nc(-c3cccs3)nc3sc(-c4ccc(OCCNCCO)cc4)c(C)c23)C1=O.Cl	0.843	0.000334	91.3	0.00531	1.13	–	1.41	1.34	–	–	Nd(Unstable)
CC1=CC(=O)N(Nc2nc(-c3cccs3)nc3sc(-c4ccc(OCCNCCC#N)cc4)c(C)c23)C1=O	–	0.0294	52	0.191	–	32.1	–	–	–	–	–
